Test results from patent publication US20170208799A1, “SYNERGISTIC ANTIMICROBIAL COMPOSITION” (Dow Global Technologies LLC, priority 2014, published 2017).

Columns and labels:
Format in all cases: cell-based
[1] = system: Desulfuvibrio longus (D. longus); assay: Synergy test in 96 well microtiter plate against anaerobic sulfate reducing bacteria; details: end point, 32° C.; for Aqucar TN-50 (ppm THNM) - QA: THNM alone
Experimental: The synergism of the biocides combination of the present invention was determined using the method described by Kull, F. C, et al. in Applied Microbiology 9:538-541 (1961). […] If end point could not be established, the highest concentration of biocide tested will be used as the end point for the calculation and the SI will be recorded in “less than or <” values. […] The type of microorganisms used for the test inoculums, the matrix to support optimum microbial growth during the test period and the medium used to enumerate the microorganisms after specified contact time are summarized in Table 2. SNF (per liter of deionized water): NaCl, 3.12 gm; NaHCO3 0.131 gm; Na2SO4 0.17 gm; 1% KCl Solution (in water) 4.77 g; 1% CaCl2 Solution (in water) 7.2 gm; 1% MgSO4 Solution (in water) 5.45 gm; 1% Na2CO3 Solution (in water) 4.39 gm. Adjust the pH to 7 before use. Modified Baar's medium (MB): MgSO4, 2 g/l; sodium citrate, 5 g/l; CaSO4, 1 g/l; NH4Cl, g/l; K2HPO4, 0.5 g/l; sodium lactate, 3.5 g/l; yeast extract, 1 g/l; Sodium thioglycolate 0. g/l. Fe(NH4)2(SO4)2 1 g/l, deionized water. Adjust the pH to 7.5 before sodium thioglycolate is added. [table] Synergy tests of THNM alone and in combination with a second biocide against the different test microorganisms were conducted using standard 96 well microtiter plate assays. The test was carried out by adding 500 uL of matrix, 50 μl of tested organism and 50 μl of each biocide into wells of the microtiter plate. The final biocides and test inoculum concentrations in each well were established based on this total volume. For each experiment, the final concentration of the test organisms was in the range of 10^6 to 10^7 cfu/ml. The highest concentration of THNM and second biocide used in this synergy study was 250 and 100 or 50 ppm (depending on the efficacy of the active), respectively. Eight 2-fold dilutions of each biocide were prepared using an automated liquid handling system. The first biocide was added into the well plate horizontally and the second biocide is added after rotating the plate 90 degrees. Columns nine and ten were reserved for each individual biocide to be tested at each concentration level to achieve at least 4-log bacterial kill or 2-log bacterial count (defined as end point) for synergy index calculation. In case the end point was not achieved, the highest biocide concentration tested was used for synergy index calculation. Wells in Column 11 were used as positive controls; they contained only the media and the test organism. The plates were incubated at 25° C. for aerobic bacteria and 32° C. for anaerobic bacteria. Enumeration was performed 24 hours contact time by employing the MPN method. Numbers of surviving bacteria were determined by removing 20 uL of the cell suspension from each well and adding it into 180 ul of enumeration media (i.e., resazurin TSB plates) then serially dilute in a 96-well block. Plates were incubated for 48 hours or until growth is observed in the control wells.

[2] = system: Field isolate, Acid Producing bacteria (APB); assay: Synergy test in 96 well microtiter plate against anaerobic acid producing bacteria; details: end point, Environmental isolate APB, 24 hours, 32° C.; for Aqucar TN-50 (ppm THNM) - QA: THNM alone
Experimental: The synergism of the biocides combination of the present invention was determined using the method described by Kull, F. C, et al. in Applied Microbiology 9:538-541 (1961). […] If end point could not be established, the highest concentration of biocide tested will be used as the end point for the calculation and the SI will be recorded in “less than or <” values. […] The type of microorganisms used for the test inoculums, the matrix to support optimum microbial growth during the test period and the medium used to enumerate the microorganisms after specified contact time are summarized in Table 2. Mineral salts medium (MSM No Nutrients). The medium contains (in mg/l) the following components: FeCl3.6H2O (1); CaCl2.2H2O (10); MgSO4.7H2O (22.5); (NH4)2SO4 (40); KH2PO4 (10); and K2HPO4 (25.5). After all components are added to deionized water, the pH of the medium is adjusted to 7.5 before use. [table] Synergy tests of THNM alone and in combination with a second biocide against the different test microorganisms were conducted using standard 96 well microtiter plate assays. The test was carried out by adding 500 uL of matrix, 50 μl of tested organism and 50 μl of each biocide into wells of the microtiter plate. The final biocides and test inoculum concentrations in each well were established based on this total volume. For each experiment, the final concentration of the test organisms was in the range of 10^6 to 10^7 cfu/ml. The highest concentration of THNM and second biocide used in this synergy study was 250 and 100 or 50 ppm (depending on the efficacy of the active), respectively. Eight 2-fold dilutions of each biocide were prepared using an automated liquid handling system. The first biocide was added into the well plate horizontally and the second biocide is added after rotating the plate 90 degrees. Columns nine and ten were reserved for each individual biocide to be tested at each concentration level to achieve at least 4-log bacterial kill or 2-log bacterial count (defined as end point) for synergy index calculation. In case the end point was not achieved, the highest biocide concentration tested was used for synergy index calculation. Wells in Column 11 were used as positive controls; they contained only the media and the test organism. The plates were incubated at 25° C. for aerobic bacteria and 32° C. for anaerobic bacteria. Enumeration was performed 24 hours contact time by employing the MPN method. Numbers of surviving bacteria were determined by removing 20 uL of the cell suspension from each well and adding it into 180 ul of enumeration media (i.e., resazurin TSB plates) then serially dilute in a 96-well block. Plates were incubated for 48 hours or until growth is observed in the control wells.

[3] = system: Aerobic bacteria: Klebsiella pneumoniae (ATCC 8308), Bacillus subtilis (ATCC 8473), Pseudomonas aeruginosa (ATCC 15442), Staphylococcus aureus (ATCC 6538); assay: Synergy test in 96 well microtiter plate against aerobic bacteria; details: end point, 24 hours; for Aqucar TN-50 (ppm THNM) - QA: THNM alone
Experimental: The synergism of the biocides combination of the present invention was determined using the method described by Kull, F. C, et al. in Applied Microbiology 9:538-541 (1961). […] If end point could not be established, the highest concentration of biocide tested will be used as the end point for the calculation and the SI will be recorded in “less than or <” values. […] The type of microorganisms used for the test inoculums, the matrix to support optimum microbial growth during the test period and the medium used to enumerate the microorganisms after specified contact time are summarized in Table 2. Mineral salts medium (MSM). The medium contains (in mg/l) the following components: FeCl3.6H2O (1); CaCl2.2H2O (10); MgSO4.7H2O (22.5); (NH4)2SO4 (40); KH2PO4 (10); K2HPO4 (25.5); Yeast Extract (10); and glucose (100). After all components are added to deionized water, the pH of the medium is adjusted to 7.5 before use. [table] Synergy tests of THNM alone and in combination with a second biocide against the different test microorganisms were conducted using standard 96 well microtiter plate assays. The test was carried out by adding 500 uL of matrix, 50 μl of tested organism and 50 μl of each biocide into wells of the microtiter plate. The final biocides and test inoculum concentrations in each well were established based on this total volume. For each experiment, the final concentration of the test organisms was in the range of 10^6 to 10^7 cfu/ml. The highest concentration of THNM and second biocide used in this synergy study was 250 and 100 or 50 ppm (depending on the efficacy of the active), respectively. Eight 2-fold dilutions of each biocide were prepared using an automated liquid handling system. The first biocide was added into the well plate horizontally and the second biocide is added after rotating the plate 90 degrees. Columns nine and ten were reserved for each individual biocide to be tested at each concentration level to achieve at least 4-log bacterial kill or 2-log bacterial count (defined as end point) for synergy index calculation. In case the end point was not achieved, the highest biocide concentration tested was used for synergy index calculation. Wells in Column 11 were used as positive controls; they contained only the media and the test organism. The plates were incubated at 25° C. for aerobic bacteria and 32° C. for anaerobic bacteria. Enumeration was performed 24 hours contact time by employing the MPN method. Numbers of surviving bacteria were determined by removing 20 uL of the cell suspension from each well and adding it into 180 ul of enumeration media (i.e., resazurin TSB plates) then serially dilute in a 96-well block. Plates were incubated for 48 hours or until growth is observed in the control wells.

Compound: O=[N+]([O-])C(CO)(CO)CO [THNM, Tris(hydroxymethyl)nitromethane]
- Aqucar TN-50 (ppm THNM) - QA ([1]; Table 7, 24 hours): 250.00 ppm
- Aqucar TN-50 (ppm THNM) - QA ([1]; Table 8, 24 hours): 250.00 ppm
- Aqucar TN-50 (ppm THNM) - QA ([1]; Table 9, 24 hours): 250.00 ppm
- Aqucar TN-50 (ppm THNM) - QA ([1]; Table 10, 24 hours): 250.00 ppm
- Aqucar TN-50 (ppm THNM) - QA ([2]; Table 11): >250 ppm
- Aqucar TN-50 (ppm THNM) - QA ([2]; Table 12): >250 ppm
- Aqucar TN-50 (ppm THNM) - QA ([2]; Table 13): >250 ppm
- Aqucar TN-50 (ppm THNM) - QA ([2]; Table 14): >250 ppm
- Aqucar TN-50 (ppm THNM) - QA ([3]; Table 3, aerobic bacteria, 25° C.): >250 ppm
- Aqucar TN-50 (ppm THNM) - QA ([3]; Table 4, aerobic bacteria, 25° C.): >250 ppm
- Aqucar TN-50 (ppm THNM) - QA ([3]; Table 5, aerobic bacteria, 25° C.): >250 ppm
- Aqucar TN-50 (ppm THNM) - QA ([3]; Table 6): >250 ppm

Compound: Benzalkonium chloride (benzyl-C8-18-alkyldimethyl, chlorides) [BKC]
- BKC (ppm ADBAC) - QB ([1]; BKC alone, 24 hours): 3.13 ppm
- BKC (ppm ADBAC) - QB ([2]; BKC alone): 12.50 ppm
- Benzalkonium Chloride (ppm BKC) - QB ([3]; BKC alone, aerobic bacteria, 25° C.): >50 ppm

Compound: N-alkyl (50% C14, 40% C12, 10% C16) dimethylbenzyl ammonium Chloride [ADBAC]
- Maquat MC1412 (ppm ADBAC) - QB ([1]; ADBAC alone, 24 hours): 6.25 ppm
- Maquat MC1412 (ppm ADBAC) - QB ([2]; ADBAC alone): 12.5 ppm
- Maquat MC1412 (ppm ADBAC) - QB ([3]; ADBAC alone, aerobic bacteria, 25° C.): >50 ppm
